Patent US9127016B2, “Small molecule inhibitors of Dusp6 and uses therefor” (University of Pittsburgh—Of the Commonwealth System of …, priority 2009, dated 2015)

What was measured:
Spry4 = experiment: Zebrafish mRNA microinjection, rescue of sef expression, spry4; format: in vivo; settings: 5 μM BCI, shield stage
Description: (§1) dusp6 and XFD mRNA for microinjection studies were generated as previously described (Tsang, M. et al. Development 131, 2769-79 (2004)). Both Dusp5 and Spry4 ORFs were amplified by RT-PCR from 24 hpf zebrafish with the following primers: […]
(§2) Amplified PCR products were subcloned into pCS2+, sequenced verified and mRNAs were synthesized as described previously. Embryos were injected with 500 pg mRNA at the 1-2 cell stage, treated with 5 μM BCI at the 1000-cell stage and fixed at shield stage for in situ hybridization.
(§3) In situ hybridization experiments were carried out as described previously (Kudoh, T. et al. Genome Res 11, 1979-87 (2001)). The probes eng3, krox20, sef, dusp6, gata4, nkx2.5, cmlc2, vmhc, scl, etsrp and hand2 were generated with a RNA labeling kit (Roche) (Tsang, M. et al. Development 131, 2769-79 (2004); Chen, J. N. et al. Development 122, 3809-16 (1996); Ekker, M., et al. Development 116, 1001-10 (1992); Liao, E. C. et al. Genes Dev 12, 621-6 (1998); Oxtoby, E. et al. Nucleic Acids Res 21, 1087-95 (1993); Pham, V. N. et al. Dev Biol 303, 772-83 (2007); Tsang, M., et al. Nat Cell Biol 4, 165-9 (2002); Yelon, D., et al. Dev Biol 214, 23-37 (1999); and Yelon, D. et al. Development 127, 2573-82 (2000)). The double fluorescent in situ hybridization protocol was described by Schoenbeck et al. (Dev Cell 13, 254-67 (2007)). […]

Dusp6 = target: T1, Dusp6 (Danio rerio, UniProt Q7T2L8); experiment: Zebrafish mRNA microinjection, rescue of sef expression, dusp6; format: in vivo; settings: 5 μM BCI, shield stage
T1 construct: expressed in transfected cells; host or cells: zebrafish embryos, 500 pg mRNA injected at the 1-2 cell stage
T1 sequence (Q7T2L8 1-382): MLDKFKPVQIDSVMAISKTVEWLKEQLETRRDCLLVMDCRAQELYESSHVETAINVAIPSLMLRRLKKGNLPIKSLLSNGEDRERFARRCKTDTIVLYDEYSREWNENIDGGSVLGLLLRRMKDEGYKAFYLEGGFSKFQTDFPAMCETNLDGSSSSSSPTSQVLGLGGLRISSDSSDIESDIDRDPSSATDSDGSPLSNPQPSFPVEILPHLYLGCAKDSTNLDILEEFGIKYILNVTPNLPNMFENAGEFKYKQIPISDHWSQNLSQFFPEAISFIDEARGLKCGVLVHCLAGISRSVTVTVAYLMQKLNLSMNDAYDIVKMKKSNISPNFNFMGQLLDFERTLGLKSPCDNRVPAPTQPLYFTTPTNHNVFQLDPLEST
Description: as §1, §2, §3

[1] = test system: cardiac progenitors / heart size; experiment: Cardiac progenitor and heart size analysis in treated embryos; format: in vivo, zebrafish
Description: In situ hybridization experiments were carried out as described previously (Kudoh, T. et al. Genome Res 11, 1979-87 (2001)). The probes eng3, krox20, sef, dusp6, gata4, nkx2.5, cmlc2, vmhc, scl, etsrp and hand2 were generated with a RNA labeling kit (Roche) (Tsang, M. et al. Development 131, 2769-79 (2004); Chen, J. N. et al. Development 122, 3809-16 (1996); Ekker, M., et al. Development 116, 1001-10 (1992); Liao, E. C. et al. Genes Dev 12, 621-6 (1998); Oxtoby, E. et al. Nucleic Acids Res 21, 1087-95 (1993); Pham, V. N. et al. Dev Biol 303, 772-83 (2007); Tsang, M., et al. Nat Cell Biol 4, 165-9 (2002); Yelon, D., et al. Dev Biol 214, 23-37 (1999); and Yelon, D. et al. Development 127, 2573-82 (2000)). The double fluorescent in situ hybridization protocol was described by Schoenbeck et al. (Dev Cell 13, 254-67 (2007)). Fluorescent in situ hybridizations were visualized by confocal microscopy. Single optical sections and z-series of flat-mounted stained embryos were collected with a confocal laser scan head (SP5, Leica Microsystems, Inc.) mounted on an inverted compound microscope (DM16000, Leica Microsystems, Inc.). Images were scanned and compiled with NIH ImageJ software (rsb.info.nih.gov/ij/).
The identification of a small molecule that blocks the biologically relevant activity of Dusp6 and Dusp1 allowed us to probe the requirement for these enzymes in later developmental processes. Given that BCI could potentially block related members of the Dusp family, we examined the expression of other dusps in zebrafish. Detailed expression analyses of several dusps have been described and include dusp4, dusp1, dusp7, dusp5, and dusp22a (Qian, F. et al. Dev Dyn 233, 1163-72 (2005); Sumanas, S., et al. Blood 106, 534-41 (2005); Brown, J. L. et al. Proc Natl Acad Sci USA 105, 12337-42 (2008); Kudoh, T. et al. Genome Res 11, 1979-87 (2001); and Thisse, B. et al. Fast Release Clones: A High Throughput Expression Analysis. ZFIN Direct Data Submission (zfin.org) (2004)). Of these only Dusp6 functions as a feedback regulator of FGF/MAPK/ERK signaling and is expressed within the anterior lateral plate mesoderm, supporting the idea that this phosphatase plays a role in heart development. In early embryogenesis, Dusp6 is an important regulator of FGF signaling; knock-down with antisense morpholinos results in embryo polarity defects, which precludes the study of Dusp6′s role in later development (Tsang, M. et al. Development 131, 2769-79 (2004)). In contrast, small molecules permit the analysis at later stages of development due to rapid and transient perturbation of their biological targets. Using BCI as a chemical probe, we asked how inhibiting Dusp6 activity would alter patterning and formation of the heart. The zebrafish heart develops from a small group of cardiac progenitor cells that can be identified by 5 hpf within the mesodermal layer of the blastula stage embryo. During gastrulation, cardiac progenitor cells undergo cellular migration to form two bilateral populations known as the anterior lateral plate mesoderm (ALPM) located just behind the MHB, and begin to express the transcription factors nkx2.5 and gata4. Studies have described a role for Fgf8 in zebrafish heart development. In embryos harboring an fgf8 mutation, both atria and ventricular cells are reduced (Marques, S. R., et al. Dev Biol 321, 397-406 (2008) and Reifers, F., et al. Development 127, 225-35 (2000)). In agreement with the notion that FGF signaling plays a role in stipulating heart size, ectopic expression of a constitutively activated FGF receptor (Fgfrl) during somitogenesis stages expanded cardiac tissue (Marques, S. R., et al. Dev Biol 321, 397-406 (2008)). Therefore we used BCI to test if Dusp6 limits FGF signaling and restricts cardiac progenitors and heart organ size. In BCI-treated embryos a caudal expansion of gata4 in the ALPM was observed (compare FIG. 14a & a′ to 14b & b′; 81%, n=16). […]

[2] = test system: FGF signaling (Tg(Dusp6:dsEGFP) reporter); experiment: Dose response of GFP expression in Tg(Dusp6:dsEGFP) embryos, automated imaging; format: in vivo, zebrafish; settings: Danio rerio; treated at 24 hpf, 6 hours; read-out: EC50, GFP expression in transgenic embryos
Description: We tested a series of structurally related analogs of BCI in an in vivo assay. As described in Molina et al. (Nature Chemical Biology, 2009), Tg(Dusp6:dsEGFP) embryos were treated at 24 hours post fertilization with increasing doses of compounds. After 6 hours treatment, embryos were imaged by the IXU ImageXpress (Molecular Devices), and images were processed by Definiens Software. The software identified bright head structures and measured fluorescence.
Under similar conditions, BCI-related analogs were tested and EC50 values measured.

O=C1/C(=C/c2ccccc2)C(NC2CCCCC2)c2ccccc21 (stereo not drawn) [Compound 3, (E)-2-benzylidene-3-(cyclohexylamino)-2,3-dihydro-1H-inden-1-one]
reversal of effects of spry4 mRNA on sef expression (Spry4): did not reverse | sef expression in dusp6-injected embryos (Dusp6): rescued sef expression to control levels or higher | embryos with expansion of cardiac hand2 expression ([1]; 10-somite stage, n=19): 32% | embryos with increase in cmlc2 positive cells ([1]; 18-somite stage, n=16): 81% | embryos with expanded nkx2.5 cardiac progenitor pools ([1]; n=11): 91% | embryos with caudal expansion of gata4 in the ALPM ([1]; n=16, 10-somite stage): 81% | cardiac tissue in larvae ([1]; treated at 40% epiboly, washout next day, 56 hpf): marked expansion in cardiac tissue | embryos with marked reduction in scl expression ([1]; treated from the 1-somite stage, n=15): 93% | EC50 [2]: 11.4 µM
